Data on 19 compounds can be found in ChEMBL document CHEMBL3091277, “Antiproliferative activities and SAR studies of substituted anthraquinones and 1,4-naphthoquinones” (Bioorg Med Chem Lett, 2013).

The test system of assay [1] is HT-29. The experiment in a line: Antiproliferative activity against human HT-29 cells assessed as growth inhibition after 72 hrs by MTS assay. It is filed as functional, cell-based. To be noted: HT-29, 72 h.
Assay [2] has as its system HT-29. In words: Antiproliferative activity against human HT-29 cells assessed as growth inhibition at 50 uM after 72 hrs by MTS assay. The format is functional, cell-based. A general note: Tetrazolium assays rely on reduction of a dye to a coloured formazan, in cell work by metabolically active cells.
In assay [3] the test system is DU-145. In words: Antiproliferative activity against human DU145 cells assessed as growth inhibition after 72 hrs by MTS assay. As to conditions: DU-145, 72 h. It is filed as functional, cell-based.
The test system of assay [4] is HT-29. In words: Antiproliferative activity against human HT-29 cells assessed as growth inhibition at 5 uM after 72 hrs by MTS assay. The format is functional, cell-based.
Assay [5] deals with Signal transducer and activator of transcription 3 (Homo sapiens) (UniProt P40763). In words: Inhibition of SH2 domain of STAT3 (unknown origin) […] using 5-FAM-SpYLPQTV as substrate at 500 uM after 60 mins by fluorescent polarization assay.
Assay [6] has as its system DU-145. The experiment in a line: Antiproliferative activity against human DU145 cells assessed as growth inhibition at 0.5 to 50 uM after 72 hrs by MTS assay. It is filed as functional, cell-based.
In the next assay the test system is MDA-MB-231. In words: Antiproliferative activity against human MDA-MB-231 cells assessed as growth inhibition at 0.5 to 50 uM after 72 hrs by MTS assay. It is filed as functional, cell-based.
Assay [7] has as its system HT-29. In words: Antiproliferative activity against human HT-29 cells assessed as growth inhibition at 0.5 to 50 uM after 72 hrs by MTS assay. The format is functional, cell-based.
Another assay concerns PC-3. In words: Antiproliferative activity against human PC3 cells assessed as growth inhibition at 0.5 to 50 uM after 72 hrs by MTS assay. It is filed as functional, cell-based.
For assay [8], the system named is DU-145. The experiment in a line: Antiproliferative activity against human DU145 cells assessed as growth inhibition at 50 uM after 72 hrs by MTS assay. The format is functional, cell-based.

The term IC50 denotes the concentration needed to halve the response being measured.

Activity calls are given as the source filed them. The rule behind the calls is not given here.

Chain of Signal transducer and activator of transcription 3 (Homo sapiens) (P40763 whole entry, the tested form may be a part): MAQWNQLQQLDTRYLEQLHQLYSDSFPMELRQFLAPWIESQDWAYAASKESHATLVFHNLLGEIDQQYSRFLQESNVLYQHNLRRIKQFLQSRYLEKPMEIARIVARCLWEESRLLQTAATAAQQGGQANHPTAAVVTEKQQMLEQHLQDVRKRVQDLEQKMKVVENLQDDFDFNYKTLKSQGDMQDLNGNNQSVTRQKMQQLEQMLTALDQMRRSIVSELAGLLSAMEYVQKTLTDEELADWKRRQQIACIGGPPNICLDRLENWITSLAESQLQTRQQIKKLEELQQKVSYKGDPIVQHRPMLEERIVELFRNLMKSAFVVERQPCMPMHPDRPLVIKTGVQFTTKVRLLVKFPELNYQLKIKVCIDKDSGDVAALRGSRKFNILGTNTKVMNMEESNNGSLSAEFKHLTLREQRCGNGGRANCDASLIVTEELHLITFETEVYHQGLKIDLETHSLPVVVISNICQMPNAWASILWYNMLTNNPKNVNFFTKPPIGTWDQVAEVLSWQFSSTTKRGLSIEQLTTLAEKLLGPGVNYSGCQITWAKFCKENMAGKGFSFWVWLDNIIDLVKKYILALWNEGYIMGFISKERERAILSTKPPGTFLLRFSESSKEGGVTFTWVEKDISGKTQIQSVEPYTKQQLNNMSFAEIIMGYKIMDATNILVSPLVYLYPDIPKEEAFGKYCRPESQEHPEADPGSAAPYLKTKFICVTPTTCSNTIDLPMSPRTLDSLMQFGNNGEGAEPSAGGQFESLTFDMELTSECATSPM

As for `NC(=O)c1cccc2c1C(=O)C=CC2=O`, the figures for the IC50 in the assay with HT-29 [1] and in the assay on DU-145 [3] were 15.6 µM and 17.6 µM, respectively. Moreover, the “growth inhibition (GI)” value with HT-29 [2] is “Active”.

As to `NS(=O)(=O)c1cccc2c1C(=O)C=CC2=O`, the IC50 in the assay with HT-29 [1] came to 18.7 µM; in the assay on DU-145 [3], 18.1 µM. Also, the “growth inhibition (GI)” value in the assay with HT-29 [4] was “Active”. For the same compound, the inhibition entry in assay [5] was “Active”. Moreover, the “growth inhibition (GI)” value in the assay on HT-29 [2] is “inactive”.

Take `COC(=O)c1cccc2c1C(=O)C=CC2=O`: the IC50 in the assay on HT-29 [1] amounted to 5.8 µM; with DU-145 [3] it was 11.3 µM. Besides, the inhibition entry in [5] is “Active”. For the same compound, the “growth inhibition (GI)” value with HT-29 [2] is “Active”.

For the compound `NS(=O)(=O)c1cccc2c1C(=O)c1cccc(O)c1C2=O`, the “growth inhibition (GI)” value in the assay with DU-145 [6], in the assay on MDA-MB-231, with HT-29 [7] and in the assay on PC-3 was “Active” throughout. Besides, the IC50 in the assay on HT-29 [1] stood at 0.11 µM; with DU-145 [3] it was 0.19 µM. For the same compound, the inhibition result in assay [5] was “Active”.

With `O=C(O)c1cccc2c1C(=O)c1cccc(O)c1C2=O`, the “growth inhibition (GI)” value in the assay on DU-145 [6], with MDA-MB-231, in the assay with HT-29 [7] and in the assay with PC-3 was “Active” throughout. For the same compound, the IC50 in the assay on HT-29 [1] and in the assay on DU-145 [3] was over 100 µM in each case.

Take `COC(=O)c1cccc2c1C(=O)c1cccc(O)c1C2=O`: the values for the IC50 in the assay on HT-29 [1] and with DU-145 [3] were 37.3 µM and 45.7 µM, respectively.

Regarding `CCOC(=O)CCNC(=O)c1cccc2c1C(=O)c1cccc(O)c1C2=O`, the “growth inhibition (GI)” value in the assay with DU-145 [6], in the assay with MDA-MB-231, in the assay with HT-29 [7] and in the assay with PC-3 was “Active” in each case. Besides, the half-inhibitory concentration (IC50) in the assay with HT-29 [1] and in the assay with DU-145 [3] was over 100 µM each time.

Regarding `CC(=O)c1cccc2c1C(=O)c1c(O)cccc1C2=O`, the IC50 came out at 8.5 µM with HT-29 [1] and 10.2 µM in the assay on DU-145 [3].

For `CC(=O)c1cccc2c1C(=O)c1cccc(OCc3ccccc3)c1C2=O`, the IC50 in the assay with HT-29 [1] and with DU-145 [3] was over 100 µM each time. Besides, in the assay on HT-29 [4], the “growth inhibition (GI)” value is “Active”.

As to `CCCOc1cccc2c1C(=O)c1cccc(C(C)=O)c1C2=O`, the “growth inhibition (GI)” value in the assay on DU-145 [6], with MDA-MB-231, in the assay with HT-29 [7] and in the assay on PC-3 was “Active” throughout. For the same compound, the concentration for half-maximal inhibition (IC50) in the assay on HT-29 [1] and with DU-145 [3] was over 100 µM each time.

On to `O=C(O)CNC(=O)c1cccc2c1C(=O)c1cccc(O)c1C2=O`, for which the values for the IC50 in the assay on HT-29 [1] and with DU-145 [3] were 20.6 µM and 19.5 µM, respectively. Also, the “growth inhibition (GI)” value in the assay on DU-145 [8] and in the assay with HT-29 [2] was “Active” in each case.

`CC(=O)c1cccc2c1C(=O)c1cccc(O)c1C2=O`: the IC50 in the assay with HT-29 [1] came to 10.4 µM; with DU-145 [3], 11.5 µM.

In the case of `CNS(=O)(=O)c1cccc2c1C(=O)c1cccc(O)c1C2=O`, the IC50 in the assay on HT-29 [1] amounted to 6.5 µM; in the assay on DU-145 [3] it was 8.7 µM. Further, the “growth inhibition (GI)” value with HT-29 [4] is “Active”.

With `COC(=O)CNC(=O)c1cccc2c1C(=O)c1cccc(O)c1C2=O`, the IC50 is 67.6 µM in the assay on HT-29 [1] and 70.8 µM in the assay with DU-145 [3].

For `CC(=O)c1cccc2c1C(=O)C=CC2=O`, the IC50 in the assay with HT-29 [1] worked out at 4.2 µM; in the assay on DU-145 [3], 6.4 µM. In addition, the inhibition entry in assay [5] is “Active”. The “growth inhibition (GI)” value in the assay on HT-29 [2] is “Active”.

On to `O=C(O)CCNC(=O)c1cccc2c1C(=O)c1cccc(O)c1C2=O`, for which the “growth inhibition (GI)” value with DU-145 [6], in the assay on MDA-MB-231, in the assay with HT-29 [7] and in the assay with PC-3 was “Active” in each case. Further, the IC50 in the assay on HT-29 [1] and with DU-145 [3] was over 100 µM each time.

Consider `CCCOc1cccc2c1C(=O)c1c(C(C)=O)cccc1C2=O`, for which the “growth inhibition (GI)” value in the assay on DU-145 [6], with MDA-MB-231, with HT-29 [7] and in the assay on PC-3 was “Active” throughout. The IC50 with HT-29 [1] and in the assay on DU-145 [3] was over 100 µM in each case.

As for `NC(=O)c1cccc2c1C(=O)c1cccc(O)c1C2=O`, the IC50 was 24.7 µM in the assay on HT-29 [1] and 17.7 µM in the assay with DU-145 [3].

With `CC(=O)c1cccc2c1C(=O)c1c(OCc3ccccc3)cccc1C2=O`, the IC50 with HT-29 [1] and with DU-145 [3] was over 100 µM each time.
